This is an account of results in patent publication US5703239A, “Indanylpiperidines as melatonergic agents” (Bristol-Myers Squibb Company, priority 1996, dated 1997).

For the experiment, the target named is T1, human ML1B receptor (Homo sapiens, UniProt P49286).
T1 construct: expressed in transfected cells; host or cells: NIH 3T3 cells (stably transfected; obtained from S. M. Reppert)
T1 sequence (P49286 1-362): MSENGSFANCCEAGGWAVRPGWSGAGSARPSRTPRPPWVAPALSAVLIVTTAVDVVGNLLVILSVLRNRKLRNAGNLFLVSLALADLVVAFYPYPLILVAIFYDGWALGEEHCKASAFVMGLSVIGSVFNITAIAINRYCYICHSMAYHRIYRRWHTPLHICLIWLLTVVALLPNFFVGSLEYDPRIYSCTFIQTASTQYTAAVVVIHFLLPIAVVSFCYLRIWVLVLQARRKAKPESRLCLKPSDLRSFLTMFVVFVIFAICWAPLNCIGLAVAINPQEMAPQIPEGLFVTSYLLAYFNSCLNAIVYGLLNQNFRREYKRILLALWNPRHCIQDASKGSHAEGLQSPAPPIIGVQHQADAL
In words: Binding to human melatonergic receptors (2-[125I]-iodomelatonin, NIH 3T3 cell membranes, human ML1B receptor). Particulars: IC50 class; 200 pM 2-[125I]-iodomelatonin, 37° C., 1 hour, membranes of NIH 3T3 cells transfected with human ML1B receptor; read-out: Melatonin Binding. As for the experimental part:
Measurement of Binding to Human Melatonergic Receptors The melatonergic binding affinities of various compounds of Formula I were determined by the method of Reppert, S. M., Weaver, D. R., and Ebisawa, R. (Neuron, Volume 13, 1177-1185, 1994). The assays were incubated at 37° C. for 1 hour, and the reaction was terminated by filtration. The filters were washed with wash buffer. […] The reagents, membrane and other techniques used in the melatonergic binding assays are more fully described below: […] Reagents: (a) 50 mM Tris buffer containing 12.5 mM MgCl2, and 2 mM EDTA, pH 7.4 at 37° C. (b) Wash buffer: 20 mM Tris base containing 2 mM MgCl2. pH 7.4 at room temperature. (c) Melatonin (10^-5 M final concentration). (d) 2-[^125 I]-Iodomelatonin, 200 pM final concentration Source: NEN 2. Membrane preparation: NIH 3T3 cells stably transfected with the human ML1B receptor were obtained from S. M. Reppert and maintained. Cells were pelleted when confluent. The supernatant was discarded and the pellets frozen. For preparing membrane homogenates, the pellets are thawed on ice and resuspended in TME buffer, Tris base, MgCl2, EDTA (pH 7.4 at 37° C.), supplemented with aprotinin, leupeptin, and […]. The cells were then homogenized and centrifuged. The resulting pellet was resuspended with a Dounce homogenizer in TME and frozen. At assay, a small aliquot was thawed on ice and resuspended in TME buffer.

The structures appear in SMILES notation.

As to `COCC(=O)N1CCC(C2CCc3ccc(OC)cc32)CC1` (single isomer, unassigned; (+)) [(+)-1-(2-Methoxyacetyl)-4-(6-methoxy-indan-1-yl)piperidine], the IC50 fell in the range of 100 to 250 nM. The figure for `COc1ccc2c(c1)C(C1CCN(C(=O)C3CC3)CC1)CC2` (single isomer, unassigned; (+)) [(+)-1-(Cyclopropylcarbonyl)-4-(6-methoxy-indan-1-yl)piperidine] is below 10 nM; for `COc1ccc2c(c1)C(C1CCN(C=O)CC1)CC2` (single isomer, unassigned; (+)) [(+)-1-Formyl-4-(6-methoxy-indan-1-yl)piperidine] it is 10 to 100 nM. For `COc1ccc2c(c1)C(C1CCN(C(=O)C(C)C)CC1)CC2` (single isomer, unassigned; (+)) [(+)-4-(6-Methoxy-indan-1-yl)-1-(2-methylpropanoyl)piperidine], the IC50 was 10 to 100 nM. With `COc1ccc2c(c1)C(C1CCN(C(=O)C(F)(F)F)CC1)CC2` (single isomer, unassigned; (+)) [(+)-4-(6-Methoxy-indan-1-yl)-1-(trifluoroacetyl)piperidine], the IC50 was in the range of 10 to 100 nM.

As for `CNC(=O)N1CCC(C2CCc3ccc(OC)cc32)CC1` (single isomer, unassigned; (+)) [(+)-N-Methyl-4-(6-methoxy-indan-1-yl)piperidine-1-carboxamide], the IC50 lay within 10 to 100 nM. As to `CCNC(=O)N1CCC(C2CCc3ccc(OC)cc32)CC1` (single isomer, unassigned; (+)) [(+)N-Ethyl-4-(6-methoxy-indan-1-yl)piperidine-1-carboxamide], the IC50 is 10 to 100 nM.

Take `COc1ccc2c(c1)C(C1CCN(C(=O)C3CC3)CC1)CC2` (single isomer, unassigned; (-)) [(-)-1-(Cyclopropylcarbonyl)-4-(6-methoxy-indan-1-yl)piperidine]: the IC50 was below 10 nM. Next, `COc1ccc2c(c1)C(C1CCN(C(C)=O)CC1)CC2` (single isomer, unassigned; (-)) [(-)-1-Acetyl-4-(6-methoxy-indan-1-yl)piperidine]: below 10 nM; `CCCC(=O)N1CCC(C2CCc3ccc(OC)cc32)CC1` (single isomer, unassigned; (-)) [(-)-1-Butanoyl-4-(6-methoxy-indan-1-yl)piperidine]: below 10 nM. The figure for `COc1ccc2c(c1)C(C1CCN(C=O)CC1)CC2` (single isomer, unassigned; (-)) [(-)-1-Formyl-4-(6-methoxy-indan-1-yl)piperidine] is below 10 nM; for `COCC(=O)N1CCC(C2CCc3ccc(OC)cc32)CC1` (single isomer, unassigned; (-)) [(-)-4-(6-Methoxy-indan-1-yl)-1-(2-methoxyacetyl)piperidine] it is below 10 nM.

Regarding `COc1ccc2c(c1)C(C1CCN(C(=O)C(C)C)CC1)CC2` (single isomer, unassigned; (-)) [(-)-4-(6-Methoxy-indan-1-yl)-1-(2-methyl-propanoyl)piperidine], the IC50 was below 10 nM. The figure for `CCCCC(=O)N1CCC(C2CCc3ccc(OC)cc32)CC1` (single isomer, unassigned; (-)) [(-)-4-(6-Methoxy-indan-1-yl)-1-pentanoylpiperidine] is below 10 nM; for `CCC(=O)N1CCC(C2CCc3ccc(OC)cc32)CC1` (single isomer, unassigned; (-)) [(-)-4-(6-Methoxy-indan-1-yl)-1-propanoylpiperidine] it is below 10 nM; for `COc1ccc2c(c1)C(C1CCN(C(=O)C(F)(F)F)CC1)CC2` (single isomer, unassigned; (-)) [(-)-4-(6-methoxy-indan-1-yl)-1-(trifluoroacetyl)piperidine] it is below 10 nM.

For the molecule `COc1ccc2c(c1)C(C1CCN(C(=O)N(C)C)CC1)CC2` (single isomer, unassigned; (-)) [(-)-N,N-Dimethyl-4-(6-methoxy-indan-1-yl)piperidine-1-carboxamide], the IC50 was below 10 nM. The figure for `CCNC(=O)N1CCC(C2CCc3ccc(OC)cc32)CC1` (single isomer, unassigned; (-)) [(-)-N-Ethyl-4-(6-methoxy-indan-1-yl)piperidine-1-carboxamide] is below 10 nM. Next, `CNC(=O)N1CCC(C2CCc3ccc(OC)cc32)CC1` (single isomer, unassigned; (-)) [(-)-N-Methyl-4-(6-methoxy-indan-1-yl)piperidine-1-carboxamide]: below 10 nM; `CCC(C)(C)C(=O)N1CCC(C2CCc3ccc(OC)cc32)CC1` (centres unmarked) [1-(2,2-Dimethyl-butanoyl)-4-(6-methoxy-indan-1-yl)piperidine]: 10 to 100 nM. Consider `COc1cc2c(cc1F)CCC2C1CCN(C(=O)C2CC2)CC1` (centres unmarked) [1-(Cyclopropylcarbonyl)-4-(5-fluoro-6-methoxy-indan-1-yl)piperidine], for which the IC50 is below 10 nM.

With `CCc1ccc2c(c1)C(C1CCN(C(=O)C3CC3)CC1)CC2` (centres unmarked) [1-(Cyclopropylcarbonyl)-4-(6-ethyl-indan-1-yl)piperidine], the IC50 is below 10 nM. Next, `O=C(C1CC1)N1CCC(C2CCc3ccc(F)cc32)CC1` (centres unmarked) [1-(Cyclopropylcarbonyl)-4-(6-fluoro-indan-1-yl)piperidine]: below 10 nM; `COc1ccc2c(c1)C(C1CCN(C(=O)C3CC3)CC1)CCC2` (centres unmarked) [1-(Cyclopropylcarbonyl)-4-(7-methoxy-tetralin-1-yl)piperidine]: below 10 nM; `O=C(C1CC1)N1CCC(C2CCc3ccccc32)CC1` (centres unmarked) [1-(Cyclopropylcarbonyl)-4-(indan-1-yl)piperidine]: below 10 nM.

Consider `O=C(C1CC1)N1CCC(C2CCc3ccc(OC(F)(F)F)cc32)CC1` (centres unmarked) [1-(Cyclopropylcarbonyl)-4-[6-(trifluoromethoxy)-indan-1-yl]piperidine], for which the IC50 was 10 to 100 nM. The figure for `COc1cccc(CCCOc2ccc3c(c2)C(C2CCN(C(=O)C4CC4)CC2)CC3)c1` (centres unmarked) [1-(Cyclopropylcarbonyl)-4-[6-[3-(3-methoxyphenyl)propyloxy]-indan-1-yl]piperidine] is 10 to 100 nM.

For the molecule `COc1cc2c(cc1F)CCC2C1CCN(C(C)=O)CC1` (centres unmarked) [1-Acetyl-4-(5-fluoro-6-methoxy-indan-1-yl)piperidine], the IC50 is below 10 nM. Regarding `CCCC(=O)N1CCC(C2CCc3cc(F)c(OC)cc32)CC1` (centres unmarked) [1-Butanoyl-4-(5-fluoro-6-methoxy-indan-1-yl)piperidine], the IC50 was below 10 nM. Next, `CCCC(=O)N1CCC(C2CCc3ccc(F)cc32)CC1` (centres unmarked) [1-Butanoyl-4-(6-fluoro-indan-1-yl)piperidine]: below 10 nM; `COc1ccc2c(c1)C(C1CCN(C(=O)C3CC3)CC1)CC2` (centres unmarked) [1-Cyclopropylcarbonyl-4-(6-methoxy-indan-1-yl)piperidine]: below 10 nM; `COc1ccc2c(c1)C(C1CCN(C=O)CC1)CC2` (centres unmarked) [1-Formyl-4-(6-methoxy-indan-1-yl)piperidine]: below 10 nM.

For the molecule `COc1ccc2c(c1)C(C1CCN(C(=O)c3csc(Cl)c3OC)CC1)CC2` (centres unmarked) [1-[(2-Chloro-3-methoxythien-4-yl)carbonyl]-4-(6-methoxy-indan-1-yl)piperidine], the IC50 lay within 10 to 100 nM. As for `COc1ccc2c(c1)C(C1CCN(C(=O)c3ccco3)CC1)CC2` (centres unmarked) [1-[(2-Furanyl)carbonyl]-4-(6-methoxy-indan-1-yl)-piperidine], the IC50 is below 10 nM. The figure for `COc1ccc2c(c1)C(C1CCN(C(=O)c3sccc3Cl)CC1)CC2` (centres unmarked) [1-[(3-Chloro-thien-2-yl)carbonyl]-4-(6-methoxy-indan-1-yl)-piperidine] is below 10 nM. In the case of `COc1ccc2c(c1)C(C1CCN(C(=O)c3ccoc3)CC1)CC2` (centres unmarked) [1-[(3-Furanyl)carbonyl]4-(6-methoxy-indan-1-yl)-piperidine], the IC50 was below 10 nM. With `COc1ccc2c(c1)C(C1CCN(C(=O)C3=CCCC3)CC1)CC2` (centres unmarked) [1-[(Cyclopent-1-en-1-yl)carbonyl]-4-(6-methoxy-indan-1-yl)piperidine], the IC50 was below 10 nM. Consider `COc1cc2c(cc1F)CCC2C1CCN(C(=O)C(C)C)CC1` (centres unmarked) [4-(5-Fluoro-6-methoxy-indan-1-yl)1-(2-methylpropanoyl)piperidine], for which the IC50 was below 10 nM. The figure for `CCC(=O)N1CCC(C2CCc3cc(F)c(OC)cc32)CC1` (centres unmarked) [4-(5-Fluoro-6-methoxy-indan-1-yl)-1-propanoylpiperidine] is below 10 nM; for `CCc1ccc2c(c1)C(C1CCN(C(=O)C(C)C)CC1)CC2` (centres unmarked) [4-(6-Ethyl-indan-1-yl)-1-(2-methylpropanoyl)piperidine] it is below 10 nM. Regarding `CC(C)C(=O)N1CCC(C2CCc3ccc(F)cc32)CC1` (centres unmarked) [4-(6-Fluoro-indan-1-yl)-1-(2-methylpropanoyl)piperidine], the IC50 is below 10 nM.
